Earlier results in patent US9642863B2, “Methods for treating chronic or unresolvable pain and/or increasing the pain threshold in a subject and pharmaceutical compositions for use therein” (White Mountain Pharma, Inc., priority 2010, dated 2017).

Columns and labels:
[1] = tested on: female-to-male transsexuals; details: doses of testosterone at or above the male reference range
rats = details: treatment with testosterone
women with fibromyalgia = details: female fibromyalgia patients, transdermal testosterone
[2] = tested on: chronic pain subjects on maintenance opioids; details: four patients, testosterone adjunctive to primary opioid therapy, anecdotal
[3] = genotypic females dosed with testosterone, 36 months

SMILES: C[C@]12CC[C@H]3[C@@H](CCC4=CC(=O)CC[C@@]43C)[C@@H]1CC[C@@H]2O [testosterone]
- side effects [1]: develop hirsutism and male-like increased risk for cardiovascular disease and diabetes
- pain responses to the formalin test (rats): decreased pain responses
- fibromyalgia muscle tender point pain (women with fibromyalgia): significantly improve
- quality of life [2]: improved quality of life
- stable serum total testosterone levels [3]: about 620+/−130 ng/dL
